Experimental data: PMC3516633 (European journal of medicinal chemistry, 2012)

system: 15 different cancer cell lines; experiment: not given; details: read-out: mean EC50 averaged from 15 different cancer cell lines; cited from earlier work

SMILES | EC50
CO[C@@H](C(=O)N1Cc2[nH]nc(NC(=O)c3ccc(N4CCN(C)CC4)cc3)c2C1)c1ccccc1 [Compound 1, danusertib] | 123 nM

system: T. brucei rhodesiense YTAT1.1 strain; experiment: dose-response against T. b. rhodesiense cultures, Cell Titer Blue assay; assay type: cell-based, Trypanosoma brucei rhodesiense; details: ratio MOLT-4 EC50 / T. b. rhodesiense EC50

SMILES | Selectivity MOLT/Tbr
CN1CCN(c2ccc(C(=O)Nc3n[nH]c4c3CN(C(=O)Cc3c(F)ccc(F)c3F)C4)cc2)CC1 [Compound 9, 4-(4-Methylpiperazin-1-yl)-N-(5-(2-(2,3,6-trifluorophenyl)acetyl)-1,4,5,6-tetrahydropyrrolo[3,4-c]pyrazol-3-yl)benzamide] | 6.9
CN1CCN(c2ccc(C(=O)Nc3n[nH]c4c3CN(C(=O)Cc3cccc5ccccc35)C4)cc2)CC1 [Compound 8, 4-(4-Methylpiperazin-1-yl)-N-(5-(2-(naphthalen-1-yl)acetyl)-1,4,5,6-tetrahydropyrrolo[3,4-c]pyrazol-3-yl)benzamide] | 23.4
Cc1[nH]c2ccccc2c1CC(=O)N1Cc2[nH]nc(NC(=O)c3ccc(N4CCN(C)CC4)cc3)c2C1 [Compound 17, N-(5-(2-(2-Methyl-1H-indol-3-yl)acetyl)-1,4,5,6-tetrahydropyrrolo[3,4-c]pyrazol-3-yl)-4-(4-methylpiperazin-1-yl)benzamide] | 1.0
Cc1ccc(C(C)C(=O)N2Cc3[nH]nc(NC(=O)c4ccc(N5CCN(C)CC5)cc4)c3C2)cc1 (centres unmarked) [Compound 13, 4-(4-Methylpiperazin-1-yl)-N-(5-(2-(p-tolyl)propanoyl)-1,4,5,6-tetrahydropyrrolo[3,4-c]pyrazol-3-yl)benzamide] | 6.4
Cc1ccc(C)c(CC(=O)N2Cc3[nH]nc(NC(=O)c4ccc(N5CCN(C)CC5)cc4)c3C2)c1 [Compound 15, N-(5-(2-(2,5-Dimethylphenyl)acetyl)-1,4,5,6-tetrahydropyrrolo[3,4-c]pyrazol-3-yl)-4-(4-methylpiperazin-1-yl)benzamide] | 2.2
CN1CCN(c2ccc(C(=O)Nc3n[nH]c4c3CN(C(=O)Cc3cc(F)cc(F)c3F)C4)cc2)CC1 [Compound 16, 4-(4-Methylpiperazin-1-yl)-N-(5-(2-(2,3,5-trifluorophenyl)acetyl)-1,4,5,6-tetrahydropyrrolo[3,4-c]pyrazol-3-yl)benzamide] | 1.2
CN1CCN(c2ccc(C(=O)Nc3n[nH]c4c3CN(C(=O)Cc3cc(F)cc(F)c3)C4)cc2)CC1 [Compound 18, N-(5-(2-(3,5-Difluorophenyl)acetyl)-1,4,5,6-tetrahydropyrrolo[3,4-c]pyrazol-3-yl)-4-(4-methylpiperazin-1-yl)benzamide] | 0.7
Cc1cc(C)cc(CC(=O)N2Cc3[nH]nc(NC(=O)c4ccc(N5CCN(C)CC5)cc4)c3C2)c1 [Compound 14, N-(5-(2-(3,5-Dimethylphenyl)acetyl)-1,4,5,6-tetrahydropyrrolo[3,4-c]pyrazol-3-yl)-4-(4-methylpiperazin-1-yl)benzamide] | 4.3
CN1CCN(c2ccc(C(=O)Nc3n[nH]c4c3CN(C(=O)Cc3cccc(Cl)c3)C4)cc2)CC1 [Compound 11, N-(5-(2-(3-Chlorophenyl)acetyl)-1,4,5,6-tetrahydropyrrolo[3,4-c]pyrazol-3-yl)-4-(4-methylpiperazin-1-yl)benzamide] | 6.9

molecular target: T1, TbAUK1 (Trypanosoma brucei brucei, UniProt Q384J7); experiment: not given; details: at 200 nM; cited from earlier work

SMILES | inhibition of TbAUK1 kinase activity
CCS(=O)(=O)Nc1ccc2c(c1)/C(=C(/Nc1ccc(CN3CCCCC3)cc1)c1ccccc1)C(=O)N2 [Hesperadin, hesperadin] | to the level of a background kinase

molecular target: T1, TbAUK1; experiment: in vitro kinase assay with immunoprecipitated AU1-tagged TbAUK1; assay type: biochemical; details: tested at 500 nM; AU1-tagged TbAUK1 pull-down, MBP substrate

SMILES | inhibition of TbAUK1 kinase activity
CCS(=O)(=O)Nc1ccc2c(c1)/C(=C(/Nc1ccc(CN3CCCCC3)cc1)c1ccccc1)C(=O)N2 [Hesperadin, hesperadin] | completely inhibited TbAUK1
CCc1cccc(CC)c1NC(=O)N1Cc2[nH]nc(NC(=O)c3ccc(N4CCN(C)CC4)cc3)c2C1 [Compound 2, PHA-680632] | inhibited TbAUK1 to the same background level as hesperadin
CO[C@@H](C(=O)N1Cc2[nH]nc(NC(=O)c3ccc(N4CCN(C)CC4)cc3)c2C1)c1ccccc1 [Compound 1, danusertib] | inhibited TbAUK1 to the same background level as hesperadin
